Reference: the NIST ThermoML archive (doi:10.1016/j.jct.2011.09.022)

Conditions: Liquid, Closed cell (Static) method

CC#N [acetonitrile]
Conditions | vapor or sublimation pressure [kPa]
278.72 K | 4.443
278.88 K | 4.539
278.98 K | 4.513
279.81 K | 4.732
280.27 K | 4.859
281.91 K | 5.339
283.17 K | 5.637
283.56 K | 5.838
283.81 K | 5.916
284.56 K | 6.102
285.7 K | 6.473
286.17 K | 6.59
286.61 K | 6.754
288.72 K | 7.498
288.8 K | 7.559
288.83 K | 7.594
289.39 K | 7.802
290.09 K | 8.032
290.6 K | 8.302
291.36 K | 8.598
292.48 K | 9.163
293.21 K | 9.408
293.92 K | 9.82
294.4 K | 10.03
295.33 K | 10.43
295.94 K | 10.77
296.44 K | 11.02
297.48 K | 11.6
298.3 K | 12.05
298.67 K | 12.17
299.42 K | 12.61
301.19 K | 13.61
302.14 K | 14.18
304.16 K | 15.57
305.01 K | 16.1
306.04 K | 16.96
306.9 K | 17.53
307.95 K | 18.22
309.92 K | 19.85
310.71 K | 20.49
311.79 K | 21.38
311.88 K | 21.55
312.81 K | 22.5
313.77 K | 23.42
314.79 K | 24.17
315.71 K | 25.1
315.79 K | 25.15
316.63 K | 26.11
317.72 K | 27.21
318.66 K | 28.27
319.69 K | 29.39
320.67 K | 30.52
321.65 K | 31.73
322.54 K | 32.95
322.56 K | 32.94
322.64 K | 33.19
323.64 K | 34.49
324.59 K | 35.65
325.58 K | 37

C1CCOC1 [tetrahydrofuran]
Conditions | vapor or sublimation pressure [kPa]
275.99 K | 7.099
276.53 K | 7.556
277.76 K | 7.839
278.19 K | 8.328
279.41 K | 8.614
279.86 K | 9.036
280.16 K | 8.932
281.95 K | 9.957
283.07 K | 10.55
283.15 K | 10.32
283.36 K | 10.9
284.88 K | 11.68
286.55 K | 12.44
288.5 K | 13.79
289 K | 14
289.66 K | 14.48
291.04 K | 15.65
292.31 K | 16.65
293.3 K | 17.43
296.05 K | 19.72
296.84 K | 20.37
297.09 K | 20.65
298.15 K | 21.5
298.72 K | 22.24
300.57 K | 23.84
301.73 K | 25.28
302.96 K | 26.62
303.23 K | 26.87
304.04 K | 27.79
305.35 K | 29.43
306.54 K | 30.77
308.07 K | 32.49
310.2 K | 35.55
310.86 K | 36.65
311.9 K | 38.54
313.12 K | 40.13
313.18 K | 40.09
315.86 K | 44.65
317.71 K | 47.86
319.58 K | 51.31
321.57 K | 55.34
323.59 K | 59.46
